The record followed here is article PMC4681344, “Selective targeting of the BRG/PB1 bromodomains impairs embryonic and trophoblast stem cell maintenance” (Science Advances, 2015).

The target in data set [1] is T1, fifth bromodomain of PB1 [PB1(5)] (Homo sapiens, UniProt Q86U86).
T1 construct: isothermal titration calorimetry (ITC) with the fifth bromodomain of PB1 [PB1(5)]; made in house
Kind of data set: Isothermal titration calorimetry (ITC) of SA. The settings on record: 15°C, read-out: KD (dissociation constant). It counts as binding. The method, then:
Experiments were carried out on a VP-ITC microcalorimeter (MicroCal). All experiments were performed at 15°C in 50 mM Hepes (pH 7.5), 150 mM NaCl. The titrations were conducted using an initial injection of 2 μl followed by 34 identical injections of 8 μl. The dilution heats were measured on separate experiments and were subtracted from the titration data. Thermodynamic parameters were calculated using ΔG = ΔH − TΔS = −RTlnKB, where ΔG, ΔH, and ΔS are the changes in free energy, enthalpy, and entropy of binding, respectively. In all cases, a single binding site model was used.
Background: In ITC the heat of successive injections is recorded.

The subject of data set [2] is 48 members of the human BRD family. Kind of data set: Thermal shift (ΔTm) selectivity screening. The class given is binding. The settings on record: profiled against 48 BRDs; compounds at 10 μM.
Procedure: Thermal melting experiments were carried out using an Mx3005P Real-Time PCR machine (Stratagene). Proteins were buffered in 10 mM Hepes (pH 7.5), 500 mM NaCl, and assayed in a 96-well plate at a final concentration of 2 μM in 20-μl volume. Compounds were added at a final concentration of 10 μM. SYPRO Orange (Molecular Probes) was added as a fluorescence probe at a dilution of 1:1000. Excitation and emission filters for the SYPRO Orange dye were set to 465 and 590 nm, respectively. The temperature was raised with a step of 3°C/min from 25° to 96°C, and fluorescence readings were taken at each interval.
The test system of the next data set is BAF BRDs. Kind of data set: Initial library screening for interaction with BAF BRDs. It counts as binding.
Data set [3] relates to 102 cellular receptors as well as 30 enzyme assays. Kind of data set: Commercial CEREP screening panel.
A further data set concerns supercoiled pBR322 DNA. The data set can be described thus: DNA unwinding assay. The settings on record: 1, 5, or 10 μM. The method, then:
DNA incubated with DMSO (Sigma-Aldrich; D8418) in the presence or absence of the enzyme was run as control. After extraction by butanol (Sigma-Aldrich; 281549) and chloroform/isoamyl alcohol 24:1 (Sigma-Aldrich; C0549), the DNA was run in a 1% (w/v) agarose gel (Web Scientific; AGR-500) with a 1-kb DNA ladder (Life Technologies; 10787) for 4 hours at 80 V. The gel was then stained with SYBR Safe for 30 min before ultraviolet visualization (UVP; BioDoc-It Imaging System).

Data set [4] can be described thus: Stability in aqueous solution. The class given is physicochemical. The settings on record: 37°C, read-out: Half-life in aqueous solutions.
The target in data set [5] is T2, full-length GFP-tagged BRM in U2OS cells (Homo sapiens, UniProt P51531).
T2 construct: constructs encoding GFP fused to the N terminus of full-length BRM; expressed in transfected cells; host or cells: U2OS
T2 sequence (P51531 whole entry, the tested form may be a part): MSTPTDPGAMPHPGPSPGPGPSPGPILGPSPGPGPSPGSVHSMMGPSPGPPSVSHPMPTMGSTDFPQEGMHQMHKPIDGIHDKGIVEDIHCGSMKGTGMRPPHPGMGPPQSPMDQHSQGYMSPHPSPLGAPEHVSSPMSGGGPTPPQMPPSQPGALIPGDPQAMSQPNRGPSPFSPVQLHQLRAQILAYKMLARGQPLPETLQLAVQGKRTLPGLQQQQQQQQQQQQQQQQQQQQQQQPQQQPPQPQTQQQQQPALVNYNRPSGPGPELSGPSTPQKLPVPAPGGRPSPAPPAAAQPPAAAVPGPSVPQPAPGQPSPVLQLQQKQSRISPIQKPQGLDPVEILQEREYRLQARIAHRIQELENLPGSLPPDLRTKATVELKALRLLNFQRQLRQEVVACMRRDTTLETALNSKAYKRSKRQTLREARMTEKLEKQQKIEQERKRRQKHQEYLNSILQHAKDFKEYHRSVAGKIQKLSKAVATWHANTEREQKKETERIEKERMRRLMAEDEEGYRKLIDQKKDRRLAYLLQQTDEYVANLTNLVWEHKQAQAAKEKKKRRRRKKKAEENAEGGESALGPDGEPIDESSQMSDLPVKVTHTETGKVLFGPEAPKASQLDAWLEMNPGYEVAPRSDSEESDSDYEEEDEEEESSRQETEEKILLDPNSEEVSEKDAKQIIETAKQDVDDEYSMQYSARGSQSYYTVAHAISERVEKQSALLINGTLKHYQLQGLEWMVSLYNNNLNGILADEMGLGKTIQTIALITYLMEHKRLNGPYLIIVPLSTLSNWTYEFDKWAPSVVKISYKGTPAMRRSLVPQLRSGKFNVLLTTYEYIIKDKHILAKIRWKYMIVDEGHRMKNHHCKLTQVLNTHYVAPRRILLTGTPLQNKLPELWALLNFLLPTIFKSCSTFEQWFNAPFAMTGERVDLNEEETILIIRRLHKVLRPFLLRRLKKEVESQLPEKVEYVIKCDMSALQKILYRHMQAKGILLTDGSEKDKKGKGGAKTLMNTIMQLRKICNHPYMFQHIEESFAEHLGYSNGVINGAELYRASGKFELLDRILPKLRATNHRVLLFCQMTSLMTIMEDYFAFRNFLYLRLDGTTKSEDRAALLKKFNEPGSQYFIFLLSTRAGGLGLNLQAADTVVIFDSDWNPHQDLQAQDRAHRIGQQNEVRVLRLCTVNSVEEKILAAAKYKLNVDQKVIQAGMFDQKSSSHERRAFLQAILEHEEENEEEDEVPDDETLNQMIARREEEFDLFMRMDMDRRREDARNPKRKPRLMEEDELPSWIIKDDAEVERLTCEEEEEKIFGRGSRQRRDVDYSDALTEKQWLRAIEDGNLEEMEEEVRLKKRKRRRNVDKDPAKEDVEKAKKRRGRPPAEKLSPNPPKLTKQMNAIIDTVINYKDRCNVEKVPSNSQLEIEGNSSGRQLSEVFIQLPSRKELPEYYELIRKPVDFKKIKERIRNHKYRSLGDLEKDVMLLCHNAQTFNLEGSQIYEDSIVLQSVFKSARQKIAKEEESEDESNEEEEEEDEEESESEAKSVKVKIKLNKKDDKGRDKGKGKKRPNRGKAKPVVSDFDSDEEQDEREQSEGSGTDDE
Kind of data set: Fluorescence recovery after photobleaching (FRAP). The class given is cell-based. On the procedure: FRAP studies were performed using a protocol modified from previous studies ([24]). In brief, U2OS cells were transfected (FuGENE HD, Roche) with mammalian overexpression constructs encoding GFP fused to the N terminus of full-length BRM. The FRAP and imaging system consisted of a Zeiss LSM 710 laser scanning and control system coupled to an inverted Zeiss Axio Observer.Z1 microscope equipped with a high numerical aperture (1.3) 40× oil immersion objective. Samples were placed in an incubator chamber capable of maintaining temperature and humidity. […] Once an initial scan had been taken, a region of interest corresponding to about 50% of the entire GFP-positive nucleus was empirically selected for bleaching. A time-lapse series was then taken to record GFP recovery using 1% of the power used for bleaching. The image data sets and fluorescence recovery data were exported from ZEN 2009, the microscope control software, into Microsoft Excel to determine the average half-time for full recovery for 10 to 20 cells per treatment point.

Data set [6] relates to NCI-60 panel of tumor cell lines. Kind of data set: NCI-60 cell proliferation and survival. It counts as cell-based. The settings on record: 10 μM inhibitor.
Data set [7] concerns embryonic stem cells (CRG8 ESCs). The data set can be described thus: ESC stemness and differentiation (microscopy, qRT-PCR). It counts as cell-based. From the text: CRG8 ESCs were maintained in serum-containing media supplemented with LIF (1000 U/ml; ESGRO, ESG1106) on feeder-free gelatin-coated wells. ESC culture media contained Dulbecco’s modified Eagle’s medium/knockout (Invitrogen), 15% ES-qualified fetal bovine serum (Invitrogen), 1% penicillin-streptomycin (Lonza, DE17-602E), 1% L-glutamine (Lonza, BE17-605E), 1% sodium pyruvate (Invitrogen, 11360), 1% β-mercaptoethanol, and 1% nonessential amino acids (Invitrogen, 11140). Differentiation of ESCs was induced in the presence of retinoic acid (Sigma, R2625) by withdrawal of LIF supplementation.
qRT-PCR ESC samples were collected by culturing ESC in stemness conditions in the presence of 1 μM PF1-3 or control compound for 1 or 8 days. ESC-differentiated samples were collected by treating the cells with PF1-3 or control compound 24 hours before differentiation induction. RNA was isolated using RNeasy Mini Kit (Qiagen, 74106) following the manufacturer’s instructions. At least two samples were collected for each group, and each qRT-PCR was run in triplicates. The qRT-PCR data were normalized against the housekeeping genes Gapdh, Ppia, and Hprt and expressed against control compound–treated ESC in stemness conditions. A list of primers is compiled in tables S5 and S6.

In data set [8] the test system is H3K27me3 at Brg1 and Stat3 target genes in ESCs. Kind of data set: ChIP of H3K27me3 in ESCs. The class given is cell-based. The settings on record: promoters and TSSs, vs PFI-3oMet. The method, then: ChIP experiments were carried out with Covaris truChIP chromatin shearing reagent according to the manufacturer’s instructions with certain modifications. ESCs were fixed on-plate with 1% formaldehyde in phosphate-buffered saline for 5 min. Cells (10 million) were resuspended in 1 ml of shearing buffer and sonicated (Covaris S220) for 200 cycles per burst, 140 W peak power, 5% duty factor for 15 min in 1-ml Covaris tubes. The supernatant was then diluted to a protein concentration of 1.7 mg ml^−1, and 350 to 500 μg of protein were used for each immunoprecipitation reaction with anti-H3K27me3 (pab-069-050, Diagenode). The targeted gene fragments were amplified with primers used by Ho et al. ([27]).

Data set [9] deals with trophoblast stem cells (TSCs). Kind of data set: TSC differentiation gene expression (RNA-seq, qRT-PCR). The class given is cell-based, mouse. The method, then: Derivation and culture of TSCs were performed as previously described ([34]). Shortly, TSCs were cultured in the absence of feeders in medium supplemented with FGF4 (30 ng/ml; R&D Systems, 235-F4-025/CF), heparin (1.2 μg/ml; Sigma, H3149), and 70% conditional medium (harvested from mitomycin-treated primary mouse embryonic fibroblasts). TSC medium contained RPMI 1640 (BD Biosciences, 354230), 20% ES-qualified fetal bovine serum (Invitrogen), 1% penicillin-streptomycin (Lonza, DE17-602E), 1% L-glutamine (Lonza, BE17-605E), 1% sodium pyruvate (Invitrogen, 11360), and 0.1 mM β-mercaptoethanol. To induce differentiation, TSCs were cultured on feeder-free conditions in TSC medium lacking FGF4 and heparin supplementation.
RNA was isolated as for the ESC samples.
RNA-Seq Library synthesis and analysis were performed at the DKFZ sequencing genomics core facility (Heidelberg, Germany). Mapping and bioinformatics analysis were performed using TopHat, EdgeR Gene-E, and HOMER ([35]–[37]). The raw data from the RNA set results are available through Gene Expression Omnibus (GEO) (accession no. GSE65358). Each replicate represents at least 12 million reads, a density sufficient for qualitative analysis of gene expression. The reads were aligned to the mm10 mouse genome, allowing a mismatch of 2%. We used WebGestalt to find affected pathways ([38]).
(Real-time PCR tracks product formation cycle by cycle.)

Setting [10] is: 4 days of differentiation, vs control compound.

Each structure is given as a SMILES string. Bounds are passed on as bounds.

T1 sequence (Q86U86 653-763 limits assumed): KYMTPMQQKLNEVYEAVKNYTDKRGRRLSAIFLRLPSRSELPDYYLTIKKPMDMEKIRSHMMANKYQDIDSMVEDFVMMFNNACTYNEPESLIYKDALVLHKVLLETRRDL

With `O=C(O)c1ccccc1O` [SA, salicylic acid], the Kd (commonly the free concentration of one partner at which half of the binding sites on the other are occupied at equilibrium, for simple one-to-one binding) in data set [1] was 250 µM. Besides, in data set [2], the “Selectivity in temperature shift (ΔTm) assay” value was “good selectivity for BRDs present in BRG1/BRM and PB1”.
Consider `CCOC(=O)Nc1cc(-c2ccc(C)c(NS(C)(=O)=O)c2)nn2c(C)nnc12` [bromosporine], for which the “Binding to BAF BRDs” value with BAF BRDs is on record as “did not exhibit any binding”.
As to `O=C(/C=C/N1C[C@H]2C[C@@H]1CN2c1ccccn1)c1ccccc1O` [PFI-3, (E)-1-(2-hydroxyphenyl)-3-((1R,4R)-5-(pyridin-2-yl)-2,5-diazabicyclo[2.2.1]heptan-2-yl)prop-2-en-1-one], in data set [3], the “Interactions in CEREP panel” value is on record as “only interactions against four GPCRs (G protein–coupled receptor) with micromolar affinity”. Further, the DNA intercalation entry with supercoiled pBR322 DNA is reported as “did not intercalate into DNA”. For the same compound, the half-life (as a rule, how long it takes for the measured level to halve) in data set [4] was more than 168 h. Further, the “Half-recovery time of wild-type GFP-BRM (FRAP)” value in [5] (2.5 μM SAHA, compound exposure 1 hour) was “significantly accelerated the half-recovery time”. The “Ability to displace BRM from chromatin after 24 hours” value in [5] (exposure 24 hours, 37°C) is “did not show any loss”. For the same compound, the “Toxicity (cell proliferation and survival)” value in [6] is “did not result in significant toxicity for any of the cell lines tested”. Moreover, the “Transcription of stemness genes” value in [7] (1 μM, 1 and 8 days, qRT-PCR) was “initial up- and subsequent down-regulation of stemness genes”. In data set [7] (1 μM, 8 days, stemness-maintaining conditions (LIF), vs PFI-3oMet), the “Morphological differentiation of ESCs” value is “led to visible differentiation”. Moreover, in data set [7] (setting [10]), the Gata4 expression result is listed as “not significantly altered”, the Nes expression result is “increased” and the “T (brachyury homolog) transcription” value is on record as “at the expense of the brachyury homolog T transcription”. The “H3K27me3 at Brg1 and Stat3 binding sites” value in data set [8] is “increase of H3K27me3”. For the same compound, in data set [9] (2 μM, differentiation (D4), qRT-PCR), the “Transcription of TSC differentiation markers (Prl3d1, Tpbpa)” value is “marked increase”. The “Levels of Eomes, Brg1, Brm, and Pbrm1/Baf180” value in data set [9] (qRT-PCR) is given as “not affected”. Moreover, in data set [9] (washout of the inhibitor during differentiation), the “Prl7d1 and Tpbpa transcription after washout” value was “could still be observed after washout of the inhibitor during differentiation of TSCs albeit to a lesser extent”.
